Reference: patent US20260109695A1, “PEROXIREDOXIN 3 INHIBITORS AND METHODS OF USE FOR TREATING CANCER” (WAKE FOREST UNIVERSITY HEALTH SCIENCES, priority 2022, published 2026)
In brackets after ≈: the same amount, converted by molar mass.

Tests used:
[1] = system: human SK-OV-3 ovarian cancer cells; assay: Cellular Activity Assay (cytotoxicity, crystal violet); type: cell-based; settings: SK-OV-3 cells, 48 hr treatment
Description: (§1) To test the activity of compounds, two complimentary assays were used as described below. The Biochemical PRX3 Inhibition Assay tests the ability of each compound to crosslink PRX3 in a simple, in vitro system. In the Cellular Activity Assay, we are testing the ability of compounds to kill SK-OV-3 ovarian cancer cells.
The Cellular Activity Assay measures the EC50 of each compound in human SK-OV-3 ovarian cancer cells TS to be taken into the cell, transported to the mitochondria, and crosslink PRX3.
The cytotoxicity of compounds was measured as described in Nelson et al. (2021) Antioxidants (Basel) 10, 150; Cunniff et al. (2015) PloS one 10, e0127310; and Newick et al. (2012) PloS one 7, e39404. SK-OV-3 is an adherent, epithelial, adenocarcenoma cell line obtained from ATCC (ref #: HTB-77). SK-OV-3 cells are resistant to the commonly used chemotherapeutics, cis-platinum and doxorubicin. For this PRX3 crosslinking assay, SK-OV-3 cells were plated in a 96-well plate. After 24 h recovery, the cells were treated for 48 hr with multiple concentrations of each compound ranging from 0.1-100 μM.
Cells were washed with PBS to remove dead cells and the remaining live cells were fixed with 3.0% formaldehyde and stained with 0.1% crystal violet. The amount of crystal violet was determined by reading the absorbance at 540 nm (crystal violet dye dissolved in 100% methanol) using a plate reader. The signal for crystal violet dye is proportional to the biomass of remaining live cells. GraphPad Prism9 software was used to calculate the effective inhibitory concentration (EC50) of test compounds. Results for each compound, are normalized to the amount of cells in control wells treated with the equivalent concentration of DMSO (negative control). TS or Compound B were included in each set of assays as a positive control.

purified human PRX3 = biological target: T1, purified human PRX3 (Homo sapiens, UniProt P30048); assay: Biochemical PRX3 Inhibition Assay (crosslink by SDS-PAGE, mono-adduct by MALDI-TOF MS); settings: 1-2 hr at 37° C.
T1 construct: made in house
T1 sequence (P30048 62-256): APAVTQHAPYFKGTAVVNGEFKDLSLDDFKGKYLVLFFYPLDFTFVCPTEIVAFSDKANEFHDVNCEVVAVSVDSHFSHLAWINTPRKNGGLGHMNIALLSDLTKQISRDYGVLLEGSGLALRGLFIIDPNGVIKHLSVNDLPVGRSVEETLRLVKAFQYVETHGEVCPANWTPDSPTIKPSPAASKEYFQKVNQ
Protocol: as §1
This assay tests the ability of each compound to form a covalent adduct with PRX3. The assay is performed as described in Nelson et al. (2021) Antioxidants (Basel) 10, 150; and Cunniff et al. (2015) PloS one 10, e0127310, and follows the appearance of non-reducible PRX3 crosslinks by SDS PAGE gel electrophoresis and follows the appearance of single PRX3 adducts by mass spectrometry. For this assay, purified human PRX3, hydrogen peroxide (the PRX3 substrate) and all the components required to enable PRX3 to catalytically cycle (thioredoxin-thioredoxin reductase-NAPDH system) are included (details below).
The biochemical PRX3 Inhibition assay contains 100 µM PRX3, 50 µM human TRX2, […] mouse thioredoxin reductase, and a NADPH regenerating system composed of 3.2 mM glucose 6-phosphate, 3.2 U/ml glucose 6-phosphate dehydrogenase and 0.4 mM NADPH. Samples are incubated for 1-2 hr at 37° C. with either 0.2 mM TS (positive control), compounds or an equivalent volume of DMSO (negative control). During this incubation, hydrogen peroxide is added to induce turnover of PRX3. Reactions are stopped by the addition of a buffer containing 100 mM dithiolthreitol (to break disulfide bonds) and SDS (detergent to denature proteins). NADPH, Glucose 6-Phosphate, and glucose 6-phosphate dehydrogenase were purchased from Sigma Aldrich. PRX3, thioredoxin, and thioredoxin reductase were all purified to >98% purity in the Lowther laboratory according to protocols referenced in Nelson et al. (2021) Antioxidants (Basel) 10, 150; and Cunniff et al. (2015) PloS one 10, e0127310.
To measure the amount of PRX3 crosslink, proteins in the reaction were separated by SDS-polyacrlyamide gel electrophoresis and stained for total protein using GelCode Blue (Life Technologies). The amount of unmodified PRX3 and TS-PRX3 crosslink was measured by densiometric analysis of the signal for the PRX3 band running at the MW of a PRX3 crosslink (−46 kDa) compared to the PRX3 signal at the MW of the un-modified PRX3 (˜23 kD).
To measure covalent adduct formation on a single PRX3 monomer, each reaction was exchanged into a mass spectrometry compatible buffer containing 40 mM ammonium citrate, pH 8.3 made in HPLC water. Sample was mixed 1:1 with a matrix solution containing 30 mg/mL sinapinic acid in 70% (vol/vol) acetonitrile, 0.2% formic acid and spotted to onto the sample plate. PRX3 mass was measured by MALDI-TOF MS analysis on a Bruker Daltonics MALDI-TOF MS spectrometer. Spectra were analyzed in FLEXAnalysis Software. The intensity of the reduced PRX3 peak (SH) and intensity of the analog adduct peak was determined and corrected for background signal at the adduct peak in the DMSO control. The fraction of single analog adduct in the monomer peak was determined by dividing the intensity of the adduct peak by the summed intensity of the SH and adduct peaks.

Solubility Assay = type: physicochemical; settings: 20 mM HEPES, 100 mM NaCl, pH 7.5, 18-24 hours at ambient temperature
Protocol: A 20 mM stock solution was made for each compound in DMSO. To measure solubility, 0.03-0.05 mL of the stock was added to 0.27 mL 20 mM HEPES, 100 mM NaCl, pH 7.5. The solution was mixed and rotated 18-24 hours at ambient temperature. The next day, solutions were centrifuged for 10 min at 20,000×g at 24° C. to remove insoluble, solid material. Next, 100 μL of the supernatant containing the soluble compound was added to 900 μL DMSO and High Performance Liquid Chromatography was performed as described in Table 1 and either HPLC gradient 1 (Table 2) for HPLC gradient 2 (Table 3). For each analog, a 200 μM standard and a 20 μM standard were prepared and run in parallel (standards were dissolved completely in 100% DMSO). The amount of compound in the experimental sample was calculated by comparing the area under the curve for compound peak to the area for the closest standard and correcting for dilution.

[2] = system: Enterococcus hirae (ATCC #10541); assay: Antimicrobial Activity Assay; type: cell-based
Protocol: The overnight growth was then diluted into growth media to make a single solution of E. hirae with a final optical density at 600 nm=0.02 AU. A 20 mM stock solution of Thiostrepton in DMSO was made and used to make multiple dilutions of TS in DMSO. Each TS dilution (0.1 mL) was then added to a test tube containing 10 mL of the diluted E. hirae and grown at 37° C. overnight while shaking at 180 rpm. The next morning, each tube was visually inspected to determine if the cells grew. Final concentrations tested were 0.120, 0.090, 0.075, 0.060, 0.045, 0.030, and 0.015 μM TS. […] Three replicates were made on three separate days (n=9). […] For TS analogs, the dilute E. hirae was treated with 20 µM final concentration of each analog (three replicates each). […] DMSO was used as a positive control (complete cell growth) and 20 µM thiostrepton was used as a negative control.

578 cancer cells lines = settings: of 578 cancer cells lines tested; cited from earlier work
[3] = E. hirae, overnight at 37° C., n=9

**Q.** Which EC50 [1] does the source give for `C=C(NC(=O)C(=C)NC(=O)c1csc(C2=N[C@@H]3c4csc(n4)[C@H]4NC(=O)c5csc(n5)[C@H]([C@](C)(O)[C@@H](C)O)NC(=O)[C@H]5CSC(=N5)/C(=C/C)NC(=O)[C@H]([C@@H](C)O)NC(=O)c5csc(n5)[C@]3(CC2)NC(=O)[C@H](C)NC(=O)C(=C)NC(=O)[C@H](C)NC(=O)[C@H]([C@@H](C)CC)N[C@@H]2C=Cc3c([C@H](C)O)cc(nc3[C@H]2O)C(=O)O[C@@H]4C)n1)C(N)=O` [Thiostrepton, reference compound] here?
**A.** 1 to 10 µM

**Q.** What about the “PRX3 Inhibition (Crosslink + Mono-adduct)” value (purified human PRX3) of the same compound?
**A.** ++ (50-90%)

**Q.** What about the solubility (Solubility Assay) of the same compound?
**A.** + (<0.1 mM)

**Q.** And the “TS concentrations at which complete growth was observed” value [2, 3]?
**A.** ≤ 0.030 µM

**Q.** What about the “TS concentrations at which no growth was observed” value [2, 3] of the same compound?
**A.** ≥ 0.045 µM

**Q.** What about the MIC ([2]; Enterococcus hirae, ATCC10541, read-out: Antimicrobial Activity) of the same compound?
**A.** 0.02 to 0.2 µM (≈ 0.0333 to 0.333 µg/mL)

**Q.** What about the “Number of tumor cells lines with meaningful efficacy” value (578 cancer cells lines) of the same compound?
**A.** 403
